Experimental data reported in publication PMC10392026, “Vacuolar Phosphate Transporter1 (VPT1) may transport sugar in response to soluble sugar status of grape fruits” (Horticulture Research, 2022).

Columns and labels:
Type in all cases: cell-based
VvVPT1 = target: T1, VvVPT1 (Vitis vinifera, UniProt D7TW83); test: fluorescent uptake in yeast, confocal microscopy; settings: 60 uM 2-NBDG, 30 °C, 3 h; EBY.VW4000 yeast
T1 construct: gene VIT_02s0025g04540; full-length CDS (698 residues implied by VvVPT1_155-698) in pDR195, expressed in yeast hexose transport mutant EBY.VW4000

AtVPT1 = target: T2, AtVPT1 (Arabidopsis thaliana, UniProt F4I0G7); settings: 1-20 mM Pi, 30 °C, 5 d; indirect growth read-out
T2 construct: gene VPT1; full-length CDS (708 residues implied by AtVPT1_162-708) in pRS426, expressed in yeast Pi uptake mutant YP101

FaVPT1 [1] = target: T3, FaVPT1 (Fragaria x ananassa, UniProt Z9SEB9UZJ4); test: yeast growth complementation (SUSY7/ura3); settings: […] (w/v) Suc as sole carbon source, […] °C; indirect growth read-out
T3 construct: full-length CDS (696 residues implied by FaVPT1_147-696) in pDR195, expressed in yeast sucrose transport mutant SUSY7/ura3
T3 sequence (Z9SEB9UZJ4 1-696): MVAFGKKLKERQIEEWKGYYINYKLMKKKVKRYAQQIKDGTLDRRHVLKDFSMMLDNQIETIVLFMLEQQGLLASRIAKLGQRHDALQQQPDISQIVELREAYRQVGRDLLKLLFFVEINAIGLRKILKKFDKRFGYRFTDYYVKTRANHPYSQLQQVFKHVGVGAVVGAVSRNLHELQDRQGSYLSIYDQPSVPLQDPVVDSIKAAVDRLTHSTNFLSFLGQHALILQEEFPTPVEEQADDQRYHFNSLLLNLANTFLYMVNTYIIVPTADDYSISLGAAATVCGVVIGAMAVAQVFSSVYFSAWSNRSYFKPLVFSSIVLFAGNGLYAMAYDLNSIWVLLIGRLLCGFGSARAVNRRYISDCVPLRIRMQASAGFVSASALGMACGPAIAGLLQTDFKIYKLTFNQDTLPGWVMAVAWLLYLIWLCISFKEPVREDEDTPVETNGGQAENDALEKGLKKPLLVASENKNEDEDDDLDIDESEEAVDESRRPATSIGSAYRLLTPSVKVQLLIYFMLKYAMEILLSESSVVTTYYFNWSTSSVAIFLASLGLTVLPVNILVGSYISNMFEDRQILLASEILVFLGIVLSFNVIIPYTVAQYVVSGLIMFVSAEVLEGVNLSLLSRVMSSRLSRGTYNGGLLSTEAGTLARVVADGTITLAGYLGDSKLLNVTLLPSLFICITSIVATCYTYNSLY

FaVPT1 [2] = target: T3, FaVPT1; test: fluorescent uptake in yeast, confocal microscopy; settings: […] esculin, […] Na2HPO4 pH […] °C, […] h; SUSY7/ura3 yeast

T2 sequence (F4I0G7 1-708): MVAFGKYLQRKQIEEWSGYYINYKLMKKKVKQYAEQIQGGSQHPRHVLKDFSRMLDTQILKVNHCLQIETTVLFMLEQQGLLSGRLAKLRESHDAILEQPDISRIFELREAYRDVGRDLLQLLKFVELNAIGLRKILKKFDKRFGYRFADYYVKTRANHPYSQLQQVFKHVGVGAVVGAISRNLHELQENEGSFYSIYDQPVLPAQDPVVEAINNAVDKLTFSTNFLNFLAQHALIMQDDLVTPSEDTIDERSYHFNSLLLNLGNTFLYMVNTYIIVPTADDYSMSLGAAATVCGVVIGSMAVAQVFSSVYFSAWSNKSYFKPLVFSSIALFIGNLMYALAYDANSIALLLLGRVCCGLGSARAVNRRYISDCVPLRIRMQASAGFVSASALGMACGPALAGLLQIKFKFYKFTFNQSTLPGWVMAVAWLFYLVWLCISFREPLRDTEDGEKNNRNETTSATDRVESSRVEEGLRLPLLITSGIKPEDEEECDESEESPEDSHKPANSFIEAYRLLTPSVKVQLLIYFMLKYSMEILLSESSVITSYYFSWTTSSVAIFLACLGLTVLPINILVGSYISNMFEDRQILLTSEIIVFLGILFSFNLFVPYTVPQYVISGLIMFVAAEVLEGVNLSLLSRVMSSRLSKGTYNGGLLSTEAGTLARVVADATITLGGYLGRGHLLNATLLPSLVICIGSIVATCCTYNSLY
T1 sequence (D7TW83 entry or part of it): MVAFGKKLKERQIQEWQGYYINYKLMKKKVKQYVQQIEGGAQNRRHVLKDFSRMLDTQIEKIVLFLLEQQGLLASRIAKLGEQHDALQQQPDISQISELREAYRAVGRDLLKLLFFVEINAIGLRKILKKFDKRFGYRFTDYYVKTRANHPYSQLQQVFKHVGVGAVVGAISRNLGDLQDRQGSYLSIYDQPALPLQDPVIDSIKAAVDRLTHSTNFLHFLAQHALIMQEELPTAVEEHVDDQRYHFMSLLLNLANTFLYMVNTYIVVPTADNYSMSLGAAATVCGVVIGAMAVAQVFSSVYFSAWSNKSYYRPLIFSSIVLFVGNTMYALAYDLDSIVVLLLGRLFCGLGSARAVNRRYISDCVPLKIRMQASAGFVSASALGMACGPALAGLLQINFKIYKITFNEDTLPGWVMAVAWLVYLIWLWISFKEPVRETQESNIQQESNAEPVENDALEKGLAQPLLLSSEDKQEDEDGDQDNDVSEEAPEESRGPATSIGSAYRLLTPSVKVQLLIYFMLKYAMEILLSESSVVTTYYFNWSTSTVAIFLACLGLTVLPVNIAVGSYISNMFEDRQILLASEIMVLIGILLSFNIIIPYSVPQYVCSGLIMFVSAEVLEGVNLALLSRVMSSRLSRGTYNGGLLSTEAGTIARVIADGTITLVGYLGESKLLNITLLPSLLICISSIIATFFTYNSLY

## O=[N+]([O-])c1ccc(N[C@H]2C(O)O[C@H](CO)[C@@H](O)[C@@H]2O)c2nonc12 (stereo partly drawn) [2-NBDG, 2-[N-(7-nitrobenz-2-oxa-1,3-diazol-4-yl)amino]-2-deoxy-d-Glc]
VvVPT1
  fluorescent uptake in yeast, confocal microscopy: The fluorescence in VvVPT1-expressed yeast strain was stronger than that of the WT

## O=P(O)(O)O [Pi]
AtVPT1
  yeast growth complementation (YP101): The yeast mutant transformed with FaVPT1, VvVPT1, or AtVPT1 restored growth

## OC[C@H]1O[C@@](CO)(O[C@H]2O[C@H](CO)[C@@H](O)[C@H](O)[C@H]2O)[C@@H](O)[C@@H]1O [Suc]
FaVPT1 [1]
  yeast growth complementation (SUSY7/ura3): only FaVPT1 has sucrose transport capacity

## O=c1ccc2cc(O[C@@H]3O[C@H](CO)[C@@H](O)[C@H](O)[C@H]3O)c(O)cc2o1 [esculin]
FaVPT1 [2]
  fluorescent uptake in yeast, confocal microscopy: the FaVPT1-expressed yeast strain could take up both esculin and sucrose
